In BindingDB's records for doi:10.1021/jm020112w (Bristol-Myers Squibb, 2002) one finds Ki data, which are given here for eleven molecules.

One may read the Ki as the equilibrium dissociation constant of an inhibitor or competing ligand from its target. A lower Ki goes with a stronger hold on the target.

The assay addresses Dihydroorotate dehydrogenase (Helicobacter pylori). Description: Inhibition of dihydroorotate dehydrogenase (DHODase) of Helicobacter pylori.

Regarding `COc1ccc(-n2nc(C(=O)NCC(C)C)cc2C(=O)Nc2ccc(C(=O)N3CCCC3)cc2)cc1` [1-(4-Methoxy-phenyl)-1H-pyrazole-3,5-dicarboxylic acid 3-(isobutyl-amide) 5-{[4-(pyrrolidine-1-carbonyl)-phenyl]-amide}], the Ki worked out at 138 nM.
With `CC(C)CNC(=O)c1cc(C(=O)NCc2ccccc2)nn1-c1ccc(Cl)cc1` [1-(4-Chloro-phenyl)-1H-pyrazole-3,5-dicarboxylic acid 3-benzylamide 5-(isobutyl-amide)], the affinity corresponds to a Ki of 91 nM.
Next, `COc1ccc(-n2nc(C(=O)NCc3cccnc3)cc2C(=O)Nc2ccccc2)cc1` [1-(4-Methoxy-phenyl)-1H-pyrazole-3,5-dicarboxylic acid 5-phenylamide 3-[(pyridin-3-ylmethyl)-amide]]: 12 nM; `O=C(NCc1cccnc1)c1cc(C(=O)Nc2ccc(N3CCCCC3)cc2)n(-c2ccc(Cl)cc2)n1` [1-(4-Chloro-phenyl)-1H-pyrazole-3,5-dicarboxylic acid 5-[(4-piperidin-1-yl-phenyl)-amide] 3-[(pyridin-3-ylmethyl)-amide]]: 8 nM.
On to `COc1ccc(-n2nc(C(=O)NCc3ccccc3)cc2C(=O)Nc2ccc(C(=O)N3CCCC3)cc2)cc1` [1-(4-Methoxy-phenyl)-1H-pyrazole-3,5-dicarboxylic acid 3-benzylamide 5-{[4-(pyrrolidine-1-carbonyl)-phenyl]-amide}], for which the Ki stood at 26 nM.
Regarding `COc1ccc(-n2nc(C(=O)NC(c3ccccc3)c3ccccc3)cc2C(=O)NCc2ccccc2)cc1` [1-(4-Methoxy-phenyl)-1H-pyrazole-3,5-dicarboxylic acid 3-benzhydryl-amide 5-benzylamide], the Ki is 2400 nM.
The same measure for `O=C(NCc1cccnc1)c1cc(C(=O)Nc2ccccc2)n(-c2ccc(Cl)cc2)n1` [1-(4-Chloro-phenyl)-1H-pyrazole-3,5-dicarboxylic acid 5-phenylamide 3-[(pyridin-3-ylmethyl)-amide]]: 4 nM; for `O=C(NCc1ccccc1)c1cc(C(=O)Nc2ccccc2)n(-c2ccc(Cl)cc2)n1` [X1-(4-Chloro-phenyl)-1H-pyrazole-3,5-dicarboxylic acid 3-benzylamide 5-phenylamide]: 4 nM.
Next, `Cc1ccc(CNC(=O)c2cc(C(=O)Nc3ccccc3)n(-c3ccc(Cl)cc3)n2)cc1` [1-(4-Chloro-phenyl)-1H-pyrazole-3,5-dicarboxylic acid 3-(4-methyl-benzylamide) 5-phenylamide]: 32 nM; `COc1ccc(-n2nc(C(=O)NCC3CCCO3)cc2C(=O)Nc2ccc(C(=O)N3CCCC3)cc2)cc1` (stereo unspecified) [1-(4-Methoxy-phenyl)-1H-pyrazole-3,5-dicarboxylic acid 5-{[4-(pyrrolidine-1-carbonyl)-phenyl]-amide} 3-[(tetrahydro-furan-2-ylmethyl)-amide]]: 331 nM; `NC(=O)c1ccc(NC(=O)c2cc(C(=O)NCc3ccccc3)nn2-c2ccc(Cl)cc2)cc1` [1-(4-Chloro-phenyl)-1H-pyrazole-3,5-dicarboxylic acid 3-benzylamide 5-[(4-carbamoyl-phenyl)-amide]]: 6 nM.
